According to patent US20240174723A1, “STAPLED ANTIMICROBIAL PEPTIDES (STAMPS) AND USES THEREOF” (Lytica Therapeutics, Inc., priority 2021, published 2024):
≈ marks a conversion by molar mass, not a printed value. Positions of bridges follow the written chain, without caps; N, C: chain ends. Non-standard residues stand in square brackets, D forms with d. Residues, ends and D or L forms follow the SMILES beside them. S5 = C=CCCC[C@](C)(N)C(=O)O; Pra = C#CC[C@H](N)C(=O)O; Dab = NCC[C@H](N)C(=O)O

Columns and labels:
S. aureus = type: cell-based, Staphylococcus aureus
Protocol: (§1) Antimicrobial Activity Assay: The following microbroth dilution protocol was adapted from CLSI to determine the minimum inhibitory concentration (MIC) of StAMPs. Briefly, Mueller-Hinton broth (MHB) or cation-adjusted Mueller-Hinton broth (MHB II) was prepared and autoclaved. Then, a colony of bacterial cells was picked and grown overnight in broth at 37° C. and then diluted and allowed to grow again for 3-4 hours. Serial dilutions of peptide stocks in water (10 μl) were prepared using clear round-bottom polypropylene 96-well plates. Then 90 μl of bacteria in broth was added to give a final inoculum of 5×10^5 CFU/ml. The plates were then covered with porous tape to reduce evaporation and incubated for 20-24 hours at 37° C. The MIC was the minimum peptide concentration at which no visible bacterial growth was observed.
(§2) Renal toxicity was measured after 90 minutes of incubation, while liver toxicity was measured after 48 hours of incubation with StAMPs. N/A=not tested. The following apply to all peptides (i.e., StAMPs) listed in Tables A-C: Crosslinks (X^1—X^2 and X^3—X^4): (alk); N-terminus: —NH2; C-terminus: amidated with —NH2; counterion: Cl^−. The following apply to all peptides (i.e., StAMPs) listed in Table D: Crosslinks (X^1—X^2 and X^3—X^4): (alk); N-terminus: —NH2; C-terminus: as shown in table; counterion: Cl^−.

E. coli = type: cell-based, Escherichia coli
Protocol: as §1, §2

K. pneumoniae = type: cell-based, Klebsiella pneumoniae
Protocol: as §1, §2

in vitro = type: cell-based; conditions: human, Inhibitory Concentration at 50% Cytotoxicity (IC50) Human Liver Cells (HepG2)
Protocol: Cell culture: RPTEC were maintained in MEM media supplemented with growth factors. HEPG2 cell line was maintained in Eagle's Minimum Essential Medium (EMEM) supplemented with fetal bovine serum to a final concentration of 10%.
48 hours cytotoxicity assay: Cells were plated in a 96-well format, and after 4 hour incubation to allow attachment, serial dilutions of StAMPs from a 5 mg/mL water stock, or vehicle, were then added to the cells in a final volume of 100 μl. After incubating at 37° C. for 48 hours, 100 μl of CellTiter-Glo® reagent was added to the cells, and the plates were incubated 10 minutes at room temperature. Luminescence was then measured on a microplate reader.
as §2

P. aeruginosa = type: cell-based, Pseudomonas aeruginosa
Protocol: as §1, §2
StAMP Micelle Formulation: DSPE-MPEG(2000) was suspended in buffered saline at 50-100 mg/mL overnight. StAMP stock solutions at 5-20 mg/mL in buffered saline were prepared and equal volumes of micelle and StAMP stock solution were mixed at the desired StAMP:Lipid ratio. Suspensions were allowed to sit for 5-10 minutes at room temperature before being used in in vitro and in vivo assays. […]

A. baumannii = type: cell-based, Acinetobacter baumannii
Protocol: as §1, §2

Row | Minimum Inhibitory Concentration (MIC) S. aureus (S. aureus) | Minimum Inhibitory Concentration (MIC) E. coli (E. coli) | Minimum Inhibitory Concentration (MIC) K. pneumoniae (K. pneumoniae) | Minimum Inhibitory Concentration (MIC) P. aeruginosa (P. aeruginosa) | Minimum Inhibitory Concentration (MIC) A. baumannii (A. baumannii) | SMILES | IC50 at 48 hours (in vitro)
1 | 32 µg/mL | 4 µg/mL | 16 µg/mL | 8 µg/mL | 2 µg/mL | CC(C)[C@@H]1NC(=O)[C@@](C)(NC(=O)[C@H](C)NC(=O)[C@H](CCCCN)NC(=O)CNC(=O)[C@H](Cc2ccccc2)NC(=O)[C@H](CCCCN)NC(=O)[C@H](CCCCN)NC(=O)[C@H](CCN)NC(=O)[C@H](CCCCN)NC(=O)[C@H](CCCCN)NC(=O)[C@]2(C)CCCC=CCCC[C@](C)(NC(=O)CN)C(=O)NCC(=O)N[C@@H](CCCCN)C(=O)N[C@@H](Cc3ccccc3)C(=O)N2)CCCC=CCCC[C@@](C)(C(=O)N[C@@H](C)C(=O)N[C@@H](CCCCN)C(=O)N[C@@H](CCCCN)C(N)=O)NC(=O)[C@H](CCC(=O)O)NC(=O)CNC1=O [compound 42] (H-G[S5]GKF[S5]KK[Dab]KKFGKA[S5]VGE[S5]AKK-NH2; staple 2-6, 16-20) | 194 µg/mL (≈ 76.5 µM)
2 | 64 µg/mL | 8 µg/mL | >64 µg/mL | 2 µg/mL | 4 µg/mL | CC(C)[C@@H]1NC(=O)[C@@](C)(NC(=O)[C@H](C)NC(=O)[C@H](CCCCN)NC(=O)CNC(=O)[C@H](Cc2ccccc2)NC(=O)[C@H](CCCCN)NC(=O)[C@H](CCCCN)NC(=O)[C@H](CCCCN)NC(=O)[C@H](CCCCN)NC(=O)[C@H](CCCCN)NC(=O)[C@]2(C)CCCC=CCCC[C@](C)(NC(=O)CN)C(=O)NCC(=O)N[C@@H](CCCCN)C(=O)N[C@@H](Cc3ccccc3)C(=O)N2)CCCC=CCCC[C@@](C)(C(=O)N[C@@H](CO)C(=O)N[C@@H](CCCCN)C(=O)N[C@@H](CCCCN)C(=O)NCC(=O)NCC(=O)N[C@@H](CCC(=O)O)C(N)=O)NC(=O)[C@H](CCC(=O)O)NC(=O)CNC1=O [compound 94] (H-G[S5]GKF[S5]KKKKKFGKA[S5]VGE[S5]SKKGGE-NH2; staple 2-6, 16-20) | > 200 µg/mL
3 | 32 µg/mL | 2 µg/mL | 6 µg/mL | 4 µg/mL | 2 µg/mL | CC(C)[C@@H]1NC(=O)[C@@](C)(NC(=O)[C@H](C)NC(=O)[C@H](CCCCN)NC(=O)CNC(=O)[C@H](Cc2ccccc2)NC(=O)[C@H](CCCCN)NC(=O)[C@H](CCCCN)NC(=O)[C@H](CCCCN)NC(=O)[C@H](CCCCN)NC(=O)[C@H](CCCCN)NC(=O)[C@]2(C)CCCC=CCCC[C@](C)(NC(=O)CN)C(=O)NCC(=O)N[C@@H](CCCCN)C(=O)N[C@@H](Cc3ccccc3)C(=O)N2)CCCC=CCCC[C@@](C)(C(=O)N[C@@H](C)C(=O)N[C@@H](CCN)C(=O)N[C@@H](CCCCN)C(N)=O)NC(=O)[C@H](CCC(=O)O)NC(=O)CNC1=O [compound 44] (H-G[S5]GKF[S5]KKKKKFGKA[S5]VGE[S5]A[Dab]K-NH2; staple 2-6, 16-20) | 87 µg/mL (≈ 34.3 µM)
4 | >64 µg/mL | 4 µg/mL | 64 µg/mL | 4 µg/mL | 2 µg/mL | C#CC[C@H](NC(=O)[C@H](CCC(=O)O)NC(=O)CNC(=O)CNC(=O)[C@H](CCCCN)NC(=O)[C@H](CCCCN)NC(=O)[C@H](C)NC(=O)[C@]1(C)CCCC=CCCC[C@](C)(NC(=O)[C@H](C)NC(=O)[C@H](CCCCN)NC(=O)CNC(=O)[C@H](Cc2ccccc2)NC(=O)[C@H](CCCCN)NC(=O)[C@H](CCCCN)NC(=O)[C@H](CCCCN)NC(=O)[C@H](CCCCN)NC(=O)[C@H](CCCCN)NC(=O)[C@]2(C)CCCC=CCCC[C@](C)(NC(=O)CN)C(=O)NCC(=O)N[C@@H](CCCCN)C(=O)N[C@@H](Cc3ccccc3)C(=O)N2)C(=O)N[C@@H](C(C)C)C(=O)NCC(=O)N[C@@H](CCC(=O)O)C(=O)N1)C(N)=O [compound 95] (H-G[S5]GKF[S5]KKKKKFGKA[S5]VGE[S5]AKKGGE[Pra]-NH2; staple 2-6, 16-20) | > 200 µg/mL
